Several values for one entry are separate records, joined by “and”; a condition that tells them apart may be missing. Equal entries are not always repeated. Where no end group is shown, it is not given here. [ ]: non-standard residue; d: D form. Orn = NCCC[C@H](N)C(=O)O; Dap = NC[C@H](N)C(=O)O
Tests used:
[1] = target: TAR hairpin RNA; assay: Fluorescence anisotropy competition with Rev-N-rhodamine probe, binding to TAR hairpin RNA; parameters: species or system HIV; details: fluorescence anisotropy, 20° C., pH 7.4; read-out: Dissociation constant, TAR
Description: (§1) Binding force to each target hairpin RNA (IRES, RRE, TAR and 16S A-site) was measured by fluorescence polarization using alanine scanned peptide library (1b-1h).
(§2) Particularly, […] of each target RNA was prepared at the concentration of 10 mM, which stood at 65° C. for 10 minutes and then cooled down slowly at room temperature, leading to folding. The amphiphilic peptide was prepared respectively at the concentration of […], which were maintained at 0° C. As a probe, rev peptide labeled with rhodamine (Rev-N-rhodamine) emitting […] fluorescence was prepared at the concentration of 10 mM. Buffer was composed of 140 mM NaCl, 5 mM KCl, 1 mM MgCl2, and 20 mM HEPES (N-2-Hydroxyethylpiperazine-N′-2-Ethanesulfonic Acid, pH 7.4). Fluorescence Anisotropy was measured using AMINCO-Bowman Series Luminescence Spectrometer at 20° C. Ten nM of the probe was added in […] of buffer, to which target RNA was added to induce interaction between the probe and the target RNA. At that time, anisotropy value increased. Then, the synthesized peptide competing with the probe for binding site was added thereto with increasing the concentration slowly. Changes of fluorescence polarization were measured until fluorescence polarization reached as low as the beginning. Considering the concentration and amount of the peptide added, binding force to target RNA was calculated. That is, the binding strength between target RNA and peptide was determined according to the following KaleidaGraph. [Peptide]=Kd(Amax−A)/[Kd(A−A0)+1]×[RNA]−Kd(A−A0)^2[Probe]0/(Amax−A)(Amax−A0)
(§3) Herein, [Peptide] indicates the concentration of peptide, [RNA] indicates the concentration of target RNA, and [Probe]0 indicates the concentration of probe. A is the value of fluorescence anisotropy of sample, Amax is the value of totally bound tracer, and A0 is the value of totally free tracer.

[2] = target: RRE hairpin RNA; assay: Fluorescence anisotropy competition with Rev-N-rhodamine probe, binding to RRE hairpin RNA; parameters: species or system HIV; details: 20° C., pH 7.4, read-out: Dissociation constant, RRE
Description: as §1, §2, §3

[3] = Circular dichroism (CD), percentage of alpha-helix; assay type: physicochemical; details: CD at 20° C., condition not given; for Alpha-helical rate (%), second value of pair: value after the slash; for Alpha-helical rate (%), first value of pair: value before the slash
Description: To investigate alpha-helix of the amphiphilic peptide (1a-1h), circular dichroism (CD) was performed. Particularly, CD was measured at 20° C. by using JASCO model J715 spectropolarimeter. Scanning was performed at 190-250 nm three times (bandwidth: 1 nm, datapitch: 0.5 nm, speed: 100 nm/min), which were averaged to obtain CD data. Spectrum was corrected by measuring background spectrum. CD signal was recorded after modulating thereof with mean residue ellipticity [Q]. Percentage (%) of alpha-helix(fn) was calculated by the following formula. [Q]=Qobs[MRW/(10lc)]
MRW=mean residue weight (dividing molecular weight by the number of peptide bond, l=pathway length (cm), c=concentration (mg/mL). fn=([Q]222−[Q]coil)/([Q]helix−[Q]coil) [Q]helix=−40,000[…]+100t [Q]coil=640−45t
[Q]222=mean residue ellipticity at 222 nm (deg cm2 mol-1), [Q]helix=ellipticity of peptide having complete helical structure, [Q]coil=ellipticity of peptide having complete random coil structure, n=number of amino acid, t=° C.

[4] = target: 16S ribosomal RNA A-site; assay: Fluorescence anisotropy competition with Rev-N-rhodamine probe, binding to 16S A-site; details: 20° C., pH 7.4, read-out: Dissociation constant, 16S A-site
Description: as §1, §2, §3

[5] = system: IRES domain IV hairpin; assay: Fluorescence anisotropy competition with Rev-N-rhodamine probe, binding to IRES hairpin; parameters: species or system HCV; details: for differentiation coefficient (IRES): (mean Kd to other hairpin RNA)/(Kd to one hairpin RNA); for Kd: fluorescence anisotropy, 20° C., pH 7.4, read-out: Dissociation constant, IRES
Description: as §1, §2, §3

Substance | Kd [1] | Kd [2] | Alpha-helical rate (%), second value of pair [3] | Alpha-helical rate (%), first value of pair [3] | Kd [4] | differentiation coefficient (IRES) [5] | Kd [5]
LKKLLKLLKKLLDapWAG (LKKLLKLLKKLL[Dap]WAG-NH2; N-terminus assumed; SMILES CC(C)C[C@H](NC(=O)[C@H](CC(C)C)NC(=O)[C@H](CCCCN)NC(=O)[C@H](CCCCN)NC(=O)[C@H](CC(C)C)NC(=O)[C@H](CC(C)C)NC(=O)[C@H](CCCCN)NC(=O)[C@H](CC(C)C)NC(=O)[C@H](CC(C)C)NC(=O)[C@H](CCCCN)NC(=O)[C@H](CCCCN)NC(=O)[C@@H](N)CC(C)C)C(=O)N[C@@H](CN)C(=O)N[C@@H](Cc1c[nH]c2ccccc12)C(=O)N[C@@H](C)C(=O)NCC(N)=O) [3g, third generation peptide, both faces modified] | 5.9 nM | 11 nM | 63% | 41% | 17 nM | 9.4 | 1.2 nM
LKKLLKLLKKLLKLAG [1h, alanine scanned first generation peptide] | 63 nM | 25 nM | 43% | 9% | 53 nM | 0.96 | 49 nM
LKKLLKLLKKLLKLKG [1a, original amphiphilic 16-mer peptide] | 66 nM | 22 nM | 57% | 26% | 100 nM | 1.4 | 45 nM
LKKLLKLLKKLLOrnLAG (LKKLLKLLKKLL[Orn]LAG-NH2; N-terminus assumed; SMILES CC(C)C[C@H](NC(=O)[C@H](CCCN)NC(=O)[C@H](CC(C)C)NC(=O)[C@H](CC(C)C)NC(=O)[C@H](CCCCN)NC(=O)[C@H](CCCCN)NC(=O)[C@H](CC(C)C)NC(=O)[C@H](CC(C)C)NC(=O)[C@H](CCCCN)NC(=O)[C@H](CC(C)C)NC(=O)[C@H](CC(C)C)NC(=O)[C@H](CCCCN)NC(=O)[C@H](CCCCN)NC(=O)[C@@H](N)CC(C)C)C(=O)N[C@@H](C)C(=O)NCC(N)=O) [2g, second generation peptide, hydrophilic face modified] | 9 nM | 11 nM | 53% | 36% | 23 nM | 3.3 | 4.4 nM
LKKLLKLLKKLWKLAG [2t, tryptophan scanned second generation peptide] | 10 nM | 13 nM | 58% | 12% | 17 nM | 5.9 | 2.3 nM
LKKLLKLLKKWLKLAG [2s, tryptophan scanned second generation peptide] | 43 nM | 9.5 nM | 60% | 27% | 24 nM | 5.8 | 4.4 nM
LKKLLKLLOrnKLLDapLAG (LKKLLKLL[Orn]KLL[Dap]LAG-NH2; N-terminus assumed; SMILES CC(C)C[C@H](NC(=O)[C@H](CN)NC(=O)[C@H](CC(C)C)NC(=O)[C@H](CC(C)C)NC(=O)[C@H](CCCCN)NC(=O)[C@H](CCCN)NC(=O)[C@H](CC(C)C)NC(=O)[C@H](CC(C)C)NC(=O)[C@H](CCCCN)NC(=O)[C@H](CC(C)C)NC(=O)[C@H](CC(C)C)NC(=O)[C@H](CCCCN)NC(=O)[C@H](CCCCN)NC(=O)[C@@H](N)CC(C)C)C(=O)N[C@@H](C)C(=O)NCC(N)=O) [peptide 2k, second generation peptide, hydrophilic face modified] | 13 nM | 20 nM | 61% | 48% | 17 nM | 24 and 25 | 0.68 nM
LKKLLKLLOrnKLLDapWAG (LKKLLKLL[Orn]KLL[Dap]WAG-NH2; N-terminus assumed; SMILES CC(C)C[C@H](NC(=O)[C@H](CC(C)C)NC(=O)[C@H](CCCCN)NC(=O)[C@H](CCCN)NC(=O)[C@H](CC(C)C)NC(=O)[C@H](CC(C)C)NC(=O)[C@H](CCCCN)NC(=O)[C@H](CC(C)C)NC(=O)[C@H](CC(C)C)NC(=O)[C@H](CCCCN)NC(=O)[C@H](CCCCN)NC(=O)[C@@H](N)CC(C)C)C(=O)N[C@@H](CN)C(=O)N[C@@H](Cc1c[nH]c2ccccc12)C(=O)N[C@@H](C)C(=O)NCC(N)=O) [peptide 3h, third generation peptide, both faces modified] | 15 nM | 28 nM | 56% | 12% | 19 nM | 1.6 | 13 nM
LKKLLKLLOrnKLLKLAG (LKKLLKLL[Orn]KLLKLAG-NH2; N-terminus assumed; SMILES CC(C)C[C@H](NC(=O)[C@H](CCCCN)NC(=O)[C@H](CC(C)C)NC(=O)[C@H](CC(C)C)NC(=O)[C@H](CCCCN)NC(=O)[C@H](CCCN)NC(=O)[C@H](CC(C)C)NC(=O)[C@H](CC(C)C)NC(=O)[C@H](CCCCN)NC(=O)[C@H](CC(C)C)NC(=O)[C@H](CC(C)C)NC(=O)[C@H](CCCCN)NC(=O)[C@H](CCCCN)NC(=O)[C@@H](N)CC(C)C)C(=O)N[C@@H](C)C(=O)NCC(N)=O) [2d, second generation peptide, hydrophilic face modified] | 9.8 nM | 7.6 nM | 57% | 28% | 18 nM | 8.7 | 1.3 nM
LKKLLKLLOrnKLLKWAG (LKKLLKLL[Orn]KLLKWAG-NH2; N-terminus assumed; SMILES CC(C)C[C@H](NC(=O)[C@H](CC(C)C)NC(=O)[C@H](CCCCN)NC(=O)[C@H](CCCN)NC(=O)[C@H](CC(C)C)NC(=O)[C@H](CC(C)C)NC(=O)[C@H](CCCCN)NC(=O)[C@H](CC(C)C)NC(=O)[C@H](CC(C)C)NC(=O)[C@H](CCCCN)NC(=O)[C@H](CCCCN)NC(=O)[C@@H](N)CC(C)C)C(=O)N[C@@H](CCCCN)C(=O)N[C@@H](Cc1c[nH]c2ccccc12)C(=O)N[C@@H](C)C(=O)NCC(N)=O) [3f, third generation peptide, both faces modified] | 4.7 nM | 3.6 nM | 58% | 36% | 10 nM | 1.0 | 6.1 nM
LKKLLKLWKKLLKLAG [2r, tryptophan scanned second generation peptide] | 82 nM | 37 nM | 59% | 14% | 65 nM | 0.75 | 92 nM

Reference: patent US8084399B2, “Process for screening of a binding amphiphilic peptides specific for hairpin RNA” (priority 2009, dated 2011)
